Where a name gives a salt, the structure may show the parent alone.
melting point	Structure (SMILES)
162 to 163 °C	CCOCc1nc2c(N)nc3cc(/C=C/C(=O)OC)ccc3c2n1CCCCN1CCCS1(=O)=O [Example 9, Methyl(2E)-3-[4-amino-1-[4-(1,1-dioxidoisothiazolidin-2-yl)butyl]-2-(ethoxymethyl)-1H-imidazo[4,5-c]quinolin-7-yl]prop-2-enoate]
238 to 240 °C	CCc1nc2c(N)nc3cc(/C=C/C(=O)OC)ccc3c2n1CC(C)(C)O [Example 17, Methyl(2E)-3-[4-amino-2-ethyl-1-(2-hydroxy-2-methylpropyl)-1H-imidazo[4,5-c]quinolin-7-yl]prop-2-enoate]
184 to 186 °C	COCCc1nc2c(N)nc3ccc(CCC(=O)N(C)C)cc3c2n1CCCN1CCCC1=O [Example 102, 3-{4-Amino-2-(2-methoxyethyl)-1-[3-(2-oxo-pyrrolidin-1-yl)propyl]-1H-imidazo[4,5-c]quinolin-8-yl}-N,N-dimethylpropanamide]
190 to 192 °C	COCc1nc2c(N)nc3cc(CCC(=O)N4CCS(=O)(=O)CC4)ccc3c2n1CC(C)(C)O [Example 107, 1-[4-Amino-7-[3-(1,1-dioxidothiomorpholin-4-yl)-3-oxopropyl]-2-(methoxymethyl)-1H-imidazo[4,5-c]quinolin-1-yl]-2-methylpropan-2-ol]
209 to 211 °C	CCc1nc2c(N)nc3cc(CCCNC(C)=O)ccc3c2n1CC1CCOCC1 [Example 125, N-{3-[4-amino-2-ethyl-1-(tetrahydro-2H-pyran-4-ylmethyl)-1H-imidazo[4,5-c]quinolin-7-yl]propyl}acetamide]
214 to 215 °C	CCOCc1nc2c(N)nc3cc(NC(=O)C(C)C)ccc3c2n1CCCOC(C)C [Example 3, N-[4-Amino-2-ethoxymethyl-1-(3-isopropoxypropyl)-1H-imidazo[4,5-c]quinolin-7-yl]-2-methylpropanamide]
168 to 170 °C	COCCc1nc2c(N)nc3ccc(CCC(=O)N4CCOCC4)cc3c2n1CCCN1CCCC1=O [Example 101, 1-{3-[4-Amino-2-(2-methoxyethyl)-8-(3-morpholin-4-yl-3-oxo-propyl)-1H-imidazo[4,5-c]quinolin-1-yl]propyl}pyrrolidin-2-one]
201 to 205 °C	COC(=O)CCc1ccc2c(c1)nc(N)c1ncn(CC(C)(C)O)c12 [Example 16, Methyl 3-[4-amino-1-(2-hydroxy-2-methylpropyl)-1H-imidazo[4,5-c]quinolin-7-yl]propanoate]
132 to 133 °C	CCOCc1nc2c(N)nc3cc(CCCN4CCOCC4)ccc3c2n1CC(C)(C)O [Example 135, 1-[4-Amino-2-(ethoxymethyl)-7-(3-morpholin-4-ylpropyl)-1H-imidazo[4,5-c]quinolin-1-yl]-2-methylpropan-2-ol]
209 to 210 °C	CCOC(=O)/C=C/c1ccc2c(c1)nc(N)c1nc(CC)n(CC3CCOCC3)c12 [Example 131, Ethyl (2E)-3-[4-amino-2-ethyl-1-(tetrahydro-2H-pyran-4-ylmethyl)-1H-imidazo[4,5-c]quinolin-7-yl]prop-2-enoate]
122 to 124 °C	CCOCc1nc2c(N)nc3cc(CCCCNC(C)=O)ccc3c2n1CCCOC(C)C [Example 5, N-{4-[4-Amino-2-ethoxymethyl-1-(3-isopropxypropyl)-1H-imidazo[4,5-c]quinolin-7-yl]butyl}acetamide]
228 to 230 °C	COCc1nc2c(N)nc3cc(CCC(N)=O)ccc3c2n1CC(C)(C)O [Example 113, 3-[4-Amino-1-(2-hydroxy-2-methylpropyl)-2-(methoxymethyl)-1H-imidazo[4,5-c]quinolin-7-yl]propanamide]
217 to 218 °C	CC(C)(O)Cn1cnc2c(N)nc3cc(CCC(=O)N4CCOCC4)ccc3c21 [Example 97, 3-[4-Amino-1-(2-hydroxy-2-methylpropyl)-1H-imidazo[4,5-c]quinolin-7-yl]-1-(morpholin-4-yl)propan-1-one]
214 to 216 °C	CC(C)Cn1cnc2c(N)nc3ccc(CCO)cc3c21 [Example 96, 2-(4-Amino-1-isobutyl-1H-imidazo[4,5-c]quinolin-8-yl)ethanol]
197 to 199 °C	CCc1nc2c(N)nc3cc(CCC(N)=O)ccc3c2n1CC1CCOCC1 [Example 122, 3-[4-Amino-2-ethyl-1-(tetrahydro-2H-pyran-4-ylmethyl)-1H-imidazo[4,5-c]quinolin-7-yl]propanamide]
228 to 230 °C	CN(C)C(=O)CCc1ccc2c(c1)nc(N)c1nc(CO)n(CC(C)(C)O)c12 [Example 111, 3-[4-Amino-2-(hydroxymethyl)-1-(2-hydroxy-2-methylpropyl)-1H-imidazo[4,5-c]quinolin-7-yl]-N,N-dimethylpropanamide]
> 250 °C	COC(=O)/C=C/c1ccc2c(c1)nc(N)c1ncn(CC(C)(C)O)c12 [Example 15, Methyl(2E)-3-[4-amino-1-(2-hydroxy-2-methylpropyl)-1H-imidazo[4,5-c]quinolin-7-yl]prop-2-enoate]
134.5 to 135.5 °C	CCCNC(=O)NCCCCc1ccc2c(c1)nc(N)c1nc(COCC)n(CCCOC(C)C)c12 [Example 6, N-{4-[4-Amino-2-ethoxymethyl-1-(3-isopropxypropyl)-1H-imidazo[4,5-c]quinolin-7-yl]butyl}-N′-propylurea]

melting point	Structure (SMILES)
172 to 173 °C	CCOC(=O)CCc1ccc2c(c1)nc(N)c1nc(CC)n(CC3CCOCC3)c12 [Example 132, Ethyl 3-[4-amino-2-ethyl-1-(tetrahydro-2H-pyran-4-ylmethyl)-1H-imidazo[4,5-c]quinolin-7-yl]propanoate]
177 to 178 °C	CCOCc1nc2c(N)nc3cc(CCCO)ccc3c2n1CC(C)(C)O [Example 134, 3-[4-Amino-2-(ethoxymethyl)-1-(2-hydroxy-2-methylpropyl)-1H-imidazo[4,5-c]quinolin-7-yl]propan-1-ol]
125 to 126 °C	COc1cccc(CNCc2ccc3nc(N)c4ncn(CC(C)C)c4c3c2)c1 [Example 127, 1-Isobutyl-8-{[(3-methoxybenzyl)amino]methyl}-1H-imidazo[4,5-c]quinolin-4-amine]
149 to 152 °C	CCc1nc2c(N)nc3cc(CCNS(C)(=O)=O)ccc3c2n1CC(C)(C)O [Example 118, N-{2-[4-Amino-2-ethyl-1-(2-hydroxy-2-methylpropyl)-1H-imidazo[4,5-c]quinolin-7-yl]ethyl}methanesulfonamide]
234 to 237 °C	CCc1nc2c(N)nc3cc(CCC(=O)N(C)C)ccc3c2n1CC(C)(C)O [Example 100, 3-[4-Amino-2-ethyl-1-(2-hydroxy-2-methylpropyl)-1H-imidazo[4,5-c]quinolin-7-yl]-N,N-dimethylpropanamide]
191 to 193 °C	COCc1nc2c(N)nc3cc(CCC#N)ccc3c2n1CC(C)(C)O [Example 110, 3-[4-Amino-1-(2-hydroxy-2-methylpropyl)-2-(methoxymethyl)-1H-imidazo[4,5-c]quinolin-7-yl]propanenitrile]
193 to 194 °C	CCCCc1nc2c(N)nc3cc(/C=C/C(=O)OC)ccc3c2n1CC(C)C [Example 8, Methyl(2E)-3-[4-amino-2-butyl-1-(2-methylpropyl)-1H-imidazo[4,5-c]quinolin-7-yl]prop-2-enoate]
220 to 221 °C	CCOCc1nc2c(N)nc3cc(/C=C/Sc4ccccc4)ccc3c2n1CCCOC(C)C (as salt: hydrobromid) [Example 1, 2-Ethoxymethyl-1-(3-isopropoxypropyl)-7-[(E)-2-(phenylthio)ethenyl]-1H-imidazo[4,5-c]quinolin-4-amine]
188.5 to 190 °C	CCOCc1nc2c(N)nc3cc(/C=C/S(=O)(=O)c4ccccc4)ccc3c2n1CCCOC(C)C [Example 2, 2-Ethoxymethyl-1-(3-isopropoxypropyl)-7-[(E)-2-(phenylsulfonyl)ethenyl]-1H-imidazo[4,5-c]quinolin-4-amine]
118 to 119 °C	CCOCc1nc2c(N)nc3cc(CCC(=O)N4CCOCC4)ccc3c2n1CC(C)(C)O [Example 14, 1-[4-Amino-2-(ethoxymethyl)-7-(3-morpholin-4-yl-3-oxopropyl)-1H-imidazo[4,5-c]quinolin-1-yl]-2-methylpropan-2-ol]
> 260 °C	CCc1nc2c(N)nc3cc(/C=C/C(=O)N4CCOCC4)ccc3c2n1CC1CCOCC1 [Example 130, 2-Ethyl-7-[(1E)-3-morpholin-4-yl-3-oxoprop-1-enyl]-1-(tetrahydro-2H-pyran-4-ylmethyl)-1H-imidazo[4,5-c]quinolin-4-amine]
174 to 175 °C	CC(C)Cn1cnc2c(N)nc3ccc(CCCN4CCCC4=O)cc3c21 [Example 10, 1-{3-[4-Amino-1-(2-methylpropyl)-1H-imidazo[4,5-c]quinolin-8-yl]propyl}pyrrolidin-2-one]
219 to 220 °C	CCc1nc2c(N)nc3cc(CCC(=O)N(C)C)ccc3c2n1CC1CCOCC1 [Example 129, 3-[4-Amino-2-ethyl-1-(tetrahydro-2H-pyran-4-ylmethyl)-1H-imidazo[4,5-c]quinolin-7-yl]-N,N-dimethylpropanamide]
215 to 217 °C	COCc1nc2c(N)nc3cc(CCC(=O)N4CCOCC4)ccc3c2n1CC(C)(C)O [Example 106, 1-[4-Amino-2-(methoxymethyl)-7-(3-morpholin-4-yl-3-oxopropyl)-IH-imidazo[4,5-c]quinolin-1-yl]-2-methylpropan-2-ol]
246.5 to 249 °C	CCc1nc2c(N)nc3cc(CCS(C)(=O)=O)ccc3c2n1CC1CCOCC1 [Example 120]
202 to 205 °C	CC(C)(O)Cn1c(CO)nc2c(N)nc3cc(CCCNS(C)(=O)=O)ccc3c21 [Example 116, N-{3-[4-Amino-2-(hydroxymethyl)-1-(2-hydroxy-2-methylpropyl)-1H-imidazo[4,5-c]quinolin-7-yl]propyl}methanesulfonamide]
223 to 225 °C	CC(C)(O)Cn1c(CO)nc2c(N)nc3cc(CCC(=O)N4CCOCC4)ccc3c21 [Example 112, 1-[4-Amino-2-(hydroxymethyl)-7-(3-morpholin-4-yl-3-oxopropyl)-1H-imidazo[4,5-c]quinolin-1-yl]-2-methylpropan-2-ol]

Reference: US8658666B2, “Substituted imidazoquinolines and imidazonaphthyridines” (3M Innovative Properties Company, priority 2005, dated 2014)
